This passage reports IC50 results from patent US10208064B2, “Inhibitors of the renal outer medullary potassium channel” (MERCK SHARP & DOHME CORP., priority 2014, dated 2019).

The target of this experiment is ROMK (Kir1.1) channel (Homo sapiens (Human), UniProt P48048). Kind of experiment: Thallium Flux Assay. Format: cell-based. How it is done: The following Thallium Flux Assay was performed on each of the final product compounds in the Examples.
Chain of ROMK (Kir1.1) channel (P48048 whole entry): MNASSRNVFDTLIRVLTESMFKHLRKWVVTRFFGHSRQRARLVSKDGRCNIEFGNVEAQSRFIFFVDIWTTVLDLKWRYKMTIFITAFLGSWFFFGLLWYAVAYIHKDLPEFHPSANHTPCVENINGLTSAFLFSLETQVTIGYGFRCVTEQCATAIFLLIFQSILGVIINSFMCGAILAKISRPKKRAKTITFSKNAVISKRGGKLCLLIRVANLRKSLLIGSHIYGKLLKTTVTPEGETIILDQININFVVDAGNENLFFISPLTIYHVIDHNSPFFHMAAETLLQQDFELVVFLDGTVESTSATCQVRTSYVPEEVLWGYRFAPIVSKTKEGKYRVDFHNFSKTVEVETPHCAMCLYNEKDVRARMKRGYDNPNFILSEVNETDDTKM
A Thallium Flux Assay was performed on the compounds of the Examples. This assay has been described previously; see, e.g., PCT Published Application WO 2013/062900.
In general, IC50 refers to the concentration needed to halve the response being measured. Higher therefore signals weaker potency in that assay. In turn, `CC1=C(N2CCC3(CCN(C[C@@H](O)c4cc5c(cc4C4CC4)-c4nnnn4C5)CC3)C2=O)COC1=O` [Example 26, (S)-8-(2-(8-cyclopropyl-5H-tetrazolo[5,1-a]isoindol-7-yl)-2-hydroxyethyl)-2-(4-methyl-5-oxo-2,5-dihydrofuran-3-yl)-2,8-diazaspiro[4.5]decan-1-one] yielded an IC50 of 82 nM.
Under `CC1=C(N2CCC3(CCN(CC(O)c4ccc5c(c4)[C@H](C)n4nnnc4-5)CC3)C2=O)COC1=O` (stereo partly drawn) [Example 27A, 8-(2-hydroxy-2-((S)-5-methyl-5H-tetrazolo[5,1-α]isoindol-7-yl)ethyl)-2-(4-methyl-5-oxo-2,5-dihydrofuran-3-yl)-2,8-diazaspiro[4.5]decan-1-one] stands 87 nM; under `CC1=C(N2CCC3(CCN(CC(O)c4ccc5c(c4)[C@@H](C)n4nnnc4-5)CC3)C2=O)COC1=O` (stereo partly drawn) [Example 27B, 8-(2-hydroxy-2-((R)-5-methyl-5H-tetrazolo[5,1-α]isoindol-7-yl)ethyl)-2-(4-methyl-5-oxo-2,5-dihydrofuran-3-yl)-2,8-diazaspiro[4.5]decan-1-one], 27 nM.
Under `CC1=C(N2CCC3(CCN(C[C@H](O)c4ccc5c(c4)[C@@H](C)n4nnnc4-5)CC3)C2=O)COC1=O` [Example 27C, 8-((R)-2-hydroxy-2-((R)-5-methyl-5H-tetrazolo[5,1-a]isoindol-7-yl)ethyl)-2-(4-methyl-5-oxo-2,5-dihydrofuran-3-yl)-2,8-diazaspiro[4.5]decan-1-one] stands 36 nM; under `CC1=C(N2CCC3(CCN(C[C@@H](O)c4ccc5c(c4)[C@@H](C)n4nnnc4-5)CC3)C2=O)COC1=O` [Example 27D, 8-((S)-2-hydroxy-2-((R)-5-methyl-5H-tetrazolo[5,1-a]isoindol-7-yl)ethyl)-2-(4-methyl-5-oxo-2,5-dihydrofuran-3-yl)-2,8-diazaspiro[4.5]decan-1-one], 29 nM; under `CC1=C(N2CCC3(CCN([C@H](CO)c4ccc5c(ccc6nnnn65)c4)CC3)C2=O)COC1=O` [Example 28A, (S)-8-(2-hydroxy-1-(tetrazolo[1,5-a]quinolin-7-yl)ethyl)-2-(4-methyl-5-oxo-2,5-dihydrofuran-3-yl)-2,8-diazaspiro[4.5]decan-1-one], 44 nM.
The result for `CC1=C(N2CCC3(CCN(C(CO)c4ccc5c(c4)CCc4nnnn4-5)CC3)C2=O)COC1=O` (stereo not drawn) [Example 29, 8-(1-(4,5-dihydrotetrazolo[1,5-a]quinolin-7-yl)-2-hydroxyethyl)-2-(4-methyl-5-oxo-2,5-dihydrofuran-3-yl)-2,8-diazaspiro[4.5]decan-1-one] reads 421 nM; that for `CC1=C(N2CCC3(CCN(CCc4ccc5c(c4)Cn4nnnc4-5)CC3)C2=O)COC1=O` [Example 30, 8-(2-(5H-tetrazolo[5,1-a]isoindol-7-yl)ethyl)-2-(4-methyl-5-oxo-2,5-dihydrofuran-3-yl)-2,8-diazaspiro[4.5]decan-1-one], 6 nM.
Compound `CO[C@@H](CN1CCC2(CC1)CCN(C1=C(C)C(=O)OC1)C2=O)c1ccc2c(c1)Cn1nnnc1-2` [Example 31, (R)-8-(2-methoxy-2-(5H-tetrazolo[5,1-a]isoindol-7-yl)ethyl)-2-(4-methyl-5-oxo-2,5-dihydrofuran-3-yl)-2,8-diazaspiro[4.5]decan-1-one] came in with an IC50 of 239 nM.
